Experimental findings from US11793827B2, “Adenosine derivative and pharmaceutical composition comprising the same” (Brii Biosciences, Inc., priority 2021, dated 2023) are described below.

The nature of data set [1]: Plasma stability (human plasma). Conditions: for Formation of EFdA at 30 min: human plasma; for half-life at 2 µM: human, pH 7.4. Here is the method: The pooled frozen plasma was thawed in a water bath at 37° C. prior to experiment. Plasma was centrifuged at 4000 rpm for 5 min and the clots were removed if any. The pH will be adjusted to 7.4±0.1 if required.
Preparation of test compounds and positive control (propantheline bromide): 1 mM intermediate solution was prepared by diluting 10 μL of the stock solution with 90 μL MeOH; 1 mM intermediate of positive control Propantheline was prepared by diluting 10 μL of the stock solution with 90 μL ultrapure water. 100 μM dosing solution was prepared by diluting 20 μL of the intermediate solution (1 mM) with 180 μL MeOH. 98 μL of blank plasma was spiked with 2 μL of dosing solution (100 μM) to achieve 2 μM of the final concentration in duplicate and samples were incubated at 37° C. in a water bath. […] Centrifuged sample plates at 4,000 rpm for 10 min. An aliquot of supernatant (100 μL) was transferred from each well to another plates.

The nature of data set [2]: Liver S9 stability (human liver S9). The format is in vitro ADME. Conditions: for half-life at 1 µM: human liver S9, 37° C.; for Formation of EFdA at 30 min: human liver S9, 30 min. The method, then: Add 600 μL/well stop solution (cold in 4° C., including 100 ng/mL Tolbutamide/100 ng/mL Labetalol) to terminate the TO plate, then put it on ice. Dispense 840 μL/well S9 solution to 96-well plate as reservoir according to plate map. Then add 100 μL/well to every plate by Apricot. Incubate S9 solution and compound at 37° C. for about 10 min except NCF60 and TO. After adding S9 solution and 98μ LPB buffer to NCF60, incubate at 37° C. without pre-warming, start timer 1. After 60 min, add 600 μL/well stop solution to terminate the reaction. After pre-warming, dispense 760 μL/well cofactor solution to 96-well plate as reservoir according to plate map. Then add 98 μL/well to every plate by Apricot to start reaction. Incubate at 37° C., start timer 2, Add 600 μL/well stop solution (cold in 4° C., including 100 ng/mL Tolbutamide and Labetalol) to terminate the reaction. Samples are centrifuged at 4000 rpm for 20 min. While centrifuging, load 8× new 96-well plate with 300 μL HPLC water, then transfer 100 μL supernatant, mix with water for LC/MS/MS, transferred to Bioanalytical Services for LC-MS/MS analysis. Use equation of first order kinetics [NT]1/2 and CL: Equation of first order kinetics: [formula] [formula] [formula] [formula]

A value given as a limit tells only on which side of the number the result lay.

Take `C#C[C@]1(COC(=O)CCCC23CC4CC(CC(C4)C2)C3)O[C@@H](n2cnc3c(N)nc(F)nc32)C[C@@H]1O` [Compound 15, ((2R, 3S, 5R)-5-(6-amino-2-fluoro-9H-purin-9-yl)-2-ethynyl-3-hydroxy-tetrahydrofuran-2-yl)methyl 4-(1-adamantyl)butanoate]: the “Formation of EFdA at 30 min” value in data set [1] was “Yes”. For the same compound, in data set [1] (pooled plasma), the half-life at 2 µM was less than 50 min. Further, in data set [2], the half-life at 1 µM was less than 50 min and the “Formation of EFdA at 30 min” value is “Yes”.
As to `C#C[C@]1(COC(=O)OCCCC23CC4CC(CC(C4)C2)C3)O[C@@H](n2cnc3c(N)nc(F)nc32)C[C@@H]1OC(=O)C(C)C` [Compound 21, ((2R,3S,5R)-2-((((3-(1-adamantyl)propoxy)carbonyl)oxy)methyl)-5-(6-amino-2-fluoro-9H-purin-9-yl)-2-ethynyltetrahydrofuran-3-yl) isobutyrate], the “Formation of EFdA at 30 min” value in data set [1] is “Yes”. This compound also gave a half-life at 2 µM in data set [1] (pooled plasma) of 50 to 200 min. Further, in data set [2], the half-life at 1 µM was less than 50 min and the “Formation of EFdA at 30 min” value is on record as “Yes”.
As to `C#C[C@@]12COC(=O)OCC3CCCCC3COC(=O)OC1C[C@H](n1cnc3c(N)nc(F)nc31)O2` (stereo in doubt) [Compound 30, (6R,8R,10R)-8-(6-amino-2-fluoro-9H-purin-9-yl)-10-ethynyl-3,5,9,12,14-pentaoxatricyclo[14.4.0.06,10]icosane-4,13-dione], the “Formation of EFdA at 30 min” value in data set [1] is given as “No”. The compound further displayed a half-life at 2 µM in data set [1] (pooled plasma) of 50 to 200 min. Further, in data set [2], the half-life at 1 µM was less than 50 min and the “Formation of EFdA at 30 min” value was “Yes”.
Regarding `C#C[C@]1(COC(=O)OC23CC4CC(CC(C4)C2)C3)O[C@@H](n2cnc3c(N)nc(F)nc32)C[C@@H]1OC(=O)OCC` [Compound 27, 1-adamantyl ((2R,3S,5R)-5-(6-amino-2-fluoro-purin-9-yl)-3-ethoxycarbonyloxy-2-ethynyl-tetrahydrofuran-2-yl)methyl carbonate], the “Formation of EFdA at 30 min” value in data set [1] is recorded as “No”. For the same compound, in data set [1] (plasma), the half-life at 2 µM is more than 200 min. Also, in data set [2], the half-life at 1 µM is less than 50 min and the “Formation of EFdA at 30 min” value is given as “Yes”.
`C#C[C@]1(COC(=O)OCC23CC4CC(CC(C4)C2)C3)O[C@@H](n2cnc3c(N)nc(F)nc32)C[C@@H]1OC(=O)OCC` [Compound 24, ((2R,3S,5R)-2-(1-adamantylmethoxycarbonyloxymethyl)-5-(6-amino-2-fluoro-9H-purin-9-yl)-2-ethynyl-tetrahydrofuran-3-yl) ethyl carbonate]: the “Formation of EFdA at 30 min” value in data set [1] is reported as “Yes”. For the same compound, the half-life at 2 µM in data set [1] (plasma) was in the range of 50 to 200 min. For the same compound, in data set [2], the half-life at 1 µM is less than 50 min and the “Formation of EFdA at 30 min” value is “Yes”.
For the compound `C#C[C@]1(COC(=O)OC23CC4CC(CC(C4)C2)C3)O[C@@H](n2cnc3c(N)nc(F)nc32)C[C@@H]1OC(=O)OC12CC3CC(CC(C3)C1)C2` [Compound 6, (((2R,3S,5R)-3-((((1-adamantyl)oxy)carbonyl)oxy)-5-(6-amino-2-fluoro-9H-purin-9-yl)-2-ethynyltetrahydrofuran-2-yl)methyl) 1-adamantyl carbonate], the “Formation of EFdA at 30 min” value is on record as “No” in data set [1] and “Yes” in data set [2]. In data set [1] (pooled plasma), the half-life at 2 µM was more than 200 min. This compound also yielded a half-life at 1 µM in data set [2] of less than 50 min.
For `C#C[C@]1(COC(=O)OCCCC23CC4CC(CC(C4)C2)C3)O[C@@H](n2cnc3c(N)nc(F)nc32)C[C@@H]1OC(=O)OCC` [Compound 26, ((2R,3S,5R)-2-[3-(1-adamantyl)propoxycarbonyloxymethyl]-5-(6-amino-2-fluoro-9H-purin-9-yl)-2-ethynyl-tetrahydrofuran-3-yl) ethyl carbonate], the “Formation of EFdA at 30 min” value in data set [1] is given as “Yes”. Moreover, the half-life at 2 µM in data set [1] (plasma) is less than 50 min. In data set [2], the half-life at 1 µM was less than 50 min and the “Formation of EFdA at 30 min” value was “Yes”.
On to `C#C[C@]1(COC(=O)C23CC4CC(CC(C4)C2)C3)O[C@@H](n2cnc3c(N)nc(F)nc32)C[C@@H]1O` [Compound 3, ((2R, 3S, 5R)-5-(6-amino-2-fluoro-9H-purin-9-yl)-2-ethynyl-3-hydroxy-tetrahydrofuran-2-yl)methyl adamantane-1-carboxylate], for which, in data set [1], the “Formation of EFdA at 30 min” value was “No”. This compound also registered a half-life at 2 µM in data set [1] (pooled plasma) of less than 50 min. Besides, in data set [2], the half-life at 1 µM is less than 50 min and the “Formation of EFdA at 30 min” value is recorded as “Yes”.
For the compound `C#C[C@]1(COC(=O)OCCC23CC4CC(CC(C4)C2)C3)O[C@@H](n2cnc3c(N)nc(F)nc32)C[C@@H]1OC(=O)OCCC12CC3CC(CC(C3)C1)C2` [Compound 9, ((2R,3S,5R)-2-((((2-(1-adamantyl)ethoxy)carbonyl)oxy)methyl)-5-(6-amino-2-fluoro-9H-purin-9-yl)-2-ethynyltetrahydrofuran-3-yl) 2-(1-adamantyl)ethyl carbonate], the “Formation of EFdA at 30 min” value in data set [1] was “No”. This compound also showed a half-life at 2 µM in data set [1] (pooled plasma) of more than 200 min. In data set [2], the half-life at 1 µM is less than 50 min and the “Formation of EFdA at 30 min” value is given as “Yes”.
On the same counts, the results for `C#C[C@]1(COC(=O)OCCCC23CC4CC(CC(C4)C2)C3)O[C@@H](n2cnc3c(N)nc(F)nc32)C[C@@H]1OC(=O)OCCCC12CC3CC(CC(C3)C1)C2` [Compound 22, ((2R,3S,5R)-3-[3-(1-adamantyl)propoxycarbonyloxy]-5-(6-amino-2-fluoro-9H-purin-9-yl)-2-ethynyl-tetrahydrofuran-2-yl)methyl 3-(1-adamantyl)propyl carbonate] are “No”, more than 200 min, 50 to 200 min and “Yes”.
Consider `C#C[C@]1(COC(=O)CC23CC4CC(CC(C4)C2)C3)O[C@@H](n2cnc3c(N)nc(F)nc32)C[C@@H]1O` [Compound 1, ((2R,3S,5R)-5-(6-amino-2-fluoro-9H-purin-9-yl)-2-ethynyl-3-hydroxy-tetrahydrofuran-2-yl)methyl 2-(1-adamantyl) acetate], for which the “Formation of EFdA at 30 min” value in data set [1] was “No”; in data set [2], “Yes”. Also, in data set [1] (pooled plasma), the half-life at 2 µM was more than 200 min. In data set [2], this compound yielded a half-life at 1 µM of less than 50 min.
For the compound `C#C[C@]1(COC(=O)OC23CC4CC(CC(C4)C2)C3)O[C@@H](n2cnc3c(N)nc(F)nc32)C[C@@H]1OC(=O)C(C)C` [Compound 28, ((2R,3S,5R)-2-(1-adamantyloxycarbonyloxymethyl)-5-(6-amino-2-fluoro-9H-purin-9-yl)-2-ethynyl-tetrahydrofuran-3-yl) 2-methylpropanoate], the “Formation of EFdA at 30 min” value in data set [1] is reported as “No”. The compound further showed a half-life at 2 µM in data set [1] (pooled plasma) of more than 200 min. Further, in data set [2], the half-life at 1 µM is less than 50 min and the “Formation of EFdA at 30 min” value is on record as “Yes”.
Turning to `C#C[C@]1(CO)O[C@@H](n2cnc3c(N)nc(F)nc32)C[C@@H]1OC(=O)OCCCCC12CC3CC(CC(C3)C1)C2` [Compound 13, ((2R,3S,5R)-5-(6-amino-2-fluoro-9H-purin-9-yl)-2-ethynyl-2-(hydroxymethyl)tetrahydrofuran-3-yl) 4-(1-adamantyl)butyl carbonate], in data set [2], the half-life at 1 µM is less than 50 min and the “Formation of EFdA at 30 min” value is reported as “Yes”.
As for `C#C[C@]1(COC(=O)OCC23CC4CC(CC(C4)C2)C3)O[C@@H](n2cnc3c(N)nc(F)nc32)C[C@@H]1OC(=O)C(C)C` [Compound 20, ((2R,3S,5R)-2-(((((1-adamantyl)methoxy)carbonyl)oxy)methyl)-5-(6-amino-2-fluoro-9H-purin-9-yl)-2-ethynyltetrahydrofuran-3-yl) isobutyrate], in data set [2], the half-life at 1 µM is less than 50 min and the “Formation of EFdA at 30 min” value is on record as “Yes”.
Consider `C#C[C@@]12COC(=O)OCCCOC(=O)O[C@H]1C[C@H](n1cnc3c(N)nc(F)nc31)O2` [Compound 16, (10aR,12R,13aS)-12-(6-amino-2-fluoro-9H-purin-9-yl)-10a-ethynylhexahydro-4H,10H-furo[3,2-d][1,3,7,9]tetraoxacyclododecine-2,8-dione], for which the “Formation of EFdA at 30 min” value in data set [1] is listed as “Yes”. The same compound came in with a half-life at 2 µM in data set [1] (plasma) of 50 to 200 min.
With `C#C[C@]1(CO)O[C@@H](n2cnc3c(N)nc(F)nc32)C[C@@H]1OC(=O)OCCCC12CC3CC(CC(C3)C1)C2` [Compound 11, ((2R,3S,5R)-5-(6-amino-2-fluoro-9H-purin-9-yl)-2-ethynyl-2-(hydroxymethyl)tetrahydrofuran-3-yl) 3-(1-adamantyl)propyl carbonate], in data set [2], the half-life at 1 µM was less than 50 min and the “Formation of EFdA at 30 min” value is “Yes”.
